# Article PMC9313321 (Biomedicines, 2022)
# “And” between values parts separate entries of the source, which are not always exact repeats. Equal entries are not always repeated.
# What was measured:
# Aβ42 fibrils = target: T1, Aβ42 fibrils (Homo sapiens, UniProt P05067); experiment: TEM assay of Aβ42 fibrils in the absence of Cu(II); format: biochemical; conditions: 48 h 37 °C; for Aβ42 fibril width / Reduction of fibril width vs Aβ42 alone: TEM; for Aβ42 fibril width: CAβ42 = CL = 50 µM, Aβ42 alone 4.9 ± 0.2 nm; for Reduction of fibril width vs Aβ42 alone: 50 µM
# T1 construct: Beta-amyloid protein, fragment 1-42; purchased Sigma-Aldrich
# Procedure: (§1) To perform the TEM assays, commercial Aβ42 purchased from Sigma-Aldrich was pre-treated with pure HFIP, a beta-sheet disruptor, to obtain homogeneous and monomeric Aβ42 [54]. Then, 222 µL of HFIP was added to 1 mg of Aβ42, after which the mixture was vortexed and aliquoted into Eppendorfs. The Eppendorfs were placed in a SpeedVac at 45 °C for 30 min until all HFIP was evaporated. Pre-treated Aβ42 was stored at −20 °C until use. To start the amyloid incubations, pre-treated Aβ42 was equilibrated at room temperature for 30 min. A solution of 5 mM was obtained by dissolution in DMSO and sonication for 5 min. Subsequently, 10 mM HCl was added to obtain a working Aβ42 solution of 200 µM. Stock solutions of Cu(II) and RIV–BIM compounds (4a–d, 5a,b and 5d) at 200 µM were prepared on the same day and working solutions of Aβ42, Aβ42 + Cu(II), Aβ42 + RIV–BIM and Aβ42 + Cu(II) + RIV–BIM (CAβ42 = CCu = CL = 50 µM) were prepared by diluting stock solutions in 10 mM HCl. Working solutions were incubated for 48 h at 37 °C before being analyzed by TEM. Samples were negatively stained with uranyl acetate 2% (w/v) and analyzed at 100 kv with a JEOL JEM 1400 Plus transmission electron microscope. Fibrils of Aβ42 alone were compared with Aβ42 + RIV–BIM fibrils, and fibrils of Aβ42 + Cu(II) were compared with Aβ42 + Cu(II) + RIV–BIM in order to evaluate the inhibition of the amyloid aggregation, and the widths and lengths of fibrils were measured for each sample. The ImageJ program was used to measure the fibrils (n = 200).
# To perform the Aβ42 aggregation assays by TEM, fibrils were incubated using a fluorescence procedure previously described.
# Amyloid fibrils remained disaggregated under the effect of the RIV–BIM compounds after 48 h of incubation. […] For each of the performed assays, fibril width was measured, and the results are graphed in Figure 5. Aβ42 fibril width in the absence of Cu(II) (Figure 5a) was 4.9 ± 0.2 nm, and it was modified in the presence of all RIV–BIM compounds: compound 4d was the only one that widened amyloid fibrils (6.7 ± 0.3 nm), while the rest of the compounds narrowed them (3.3–4.5 nm).
# Aβ42 + Cu(II) fibrils = target: T2, Aβ42 + Cu(II) fibrils (Homo sapiens, UniProt P05067); experiment: TEM assay of Aβ42 fibrils in the presence of Cu(II); format: biochemical; conditions: 48 h 37 °C; for Aβ42 fibril width: TEM, CAβ42 = CCu = CL = 50 µM, Aβ42 + Cu(II) 6.8 ± 0.3 nm
# T2 construct: Beta-amyloid protein, fragment 1-42; purchased Sigma-Aldrich
# Procedure: as §1
# When fibrils were incubated in the presence of Cu(II) for 48 h (Figure 6), stronger amyloid elongated aggregation was evidenced. In fact, incubation with Cu(II) in the absence of RIV–BIM compounds (Figure 5a) presented higher aggregation than that corresponding to Aβ42 alone (Figure 5a). Based on the TEM images contained in Figure 6, compounds belonging to the linear series of hybrids (4a–4d) seem to exert minor effects on Cu(II)-induced Aβ42 aggregation according to the previous fluorescence data.
# Fibril width for Aβ42 + Cu(II) + RIV–BIM incubations was also measured (Figure 5b). When Aβ42 was incubated with Cu(II) ((6.8 ± 0.3) nm), the amyloid fibrils suffered a width increase of 38.8%, in contrast to Aβ42 alone (Figure 5a).
# T1 sequence (P05067 672-713 limits assumed): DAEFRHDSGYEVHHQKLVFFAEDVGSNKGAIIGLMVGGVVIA
# T2 sequence (P05067 672-713 limits assumed): as above
Structure (SMILES),Appearance of Aβ42 fibrils in TEM images (Aβ42 fibrils),Aβ42 fibril width (Aβ42 fibrils),Aβ42 fibril width (Aβ42 + Cu(II) fibrils),Appearance of Aβ42 aggregation in TEM images (Aβ42 + Cu(II) fibrils),Reduction of fibril width vs Aβ42 alone (Aβ42 fibrils) [%]
"CCN(C)C(=O)Oc1cccc(NC(=O)c2ccc3nc(-c4ccccc4O)[nH]c3c2)c1 [Compound 4a, 3-(2-(2-Hydroxyphenyl)-1H-benzo[d]imidazole-6-carboxamido)phenyl Ethylmethylcarbamate]",shortest fibrils,4.1 nm,4.7 nm,–,–
"CCN(C)C(=O)Oc1cccc(CNC(=O)c2ccc3nc(-c4ccccc4O)[nH]c3c2)c1 [Compound 4b, 3-((2-(2-Hydroxyphenyl)-1H-benzo[d]imidazole-6-carboxamido)methyl) Phenyl Ethylmethylcarbamate]",shortest fibrils,4.1 nm,4.8 nm,–,–
"CCN(C)C(=O)Oc1cccc(CCNC(=O)c2ccc3nc(-c4ccccc4O)[nH]c3c2)c1 [Compound 4c, 3-(2-(2-(2-Hydroxyphenyl)-1H-benzo[d]imidazole-6-carboxamido)ethyl) Phenylethylmethylcarbamate]",quite elongated fibrils,4.1 nm,4.6 nm,–,–
"CCN(C)C(=O)Oc1ccc(CCCNC(=O)c2ccc3nc(-c4ccccc4O)[nH]c3c2)cc1 [Compound 4d, 4-(3-(2-(2-Hydroxyphenyl)-1H-benzo[d]imidazole-6-carboxamido)propyl) Phenyl Ethylmethylcarbamate]",quite elongated fibrils,6.7 nm and 6.7 ± 0.3 nm,–,–,–
"CCN(C)C(=O)Oc1cccc(NC(=O)c2cccc3[nH]c(-c4ccccc4O)nc23)c1 [Compound 5a, 3-(2-(2-Hydroxyphenyl)-1H-benzo[d]imidazole-4-carboxamido)phenyl Ethylmethylcarbamate]",–,4.5 nm,4.9 nm and 4.9 ± 0.2 nm,sparser amyloid aggregation,–
"CCN(C)C(=O)Oc1cccc(CNC(=O)c2cccc3[nH]c(-c4ccccc4O)nc23)c1 [Compound 5b, 3-((2-(2-Hydroxyphenyl)-1H-benzo[d]imidazole-4-carboxamido)methyl) Phenyl Ethylmethylcarbamate]",shortest fibrils,3.8 nm and 3.8 ± 0.1 nm,4.1 nm,sparser amyloid aggregation,22.4
"CCN(C)C(=O)Oc1ccc(CCCNC(=O)c2cccc3[nH]c(-c4ccccc4O)nc23)cc1 [Compound 5d, 4-(3-(2-(2-Hydroxyphenyl)-1H-benzo[d]imidazole-4-carboxamido) Propyl) Phenyl Ethyl(methyl)carbamate]",–,3.3 nm and 3.3 ± 0.2 nm,3.9 nm,sparser amyloid aggregation,32.7
